Experiments:
Format in all cases: ADME, organism-based
[1] = Oral bioavailability in rat at 2 mg/kg; details: in vivo
[2] = Cmax in rat at 2 mg/kg, po; design: dose 2 mg/kg, route oral; details: in vivo
[3] = Volume of distribution at steady state in rat at 1 mg/kg, iv and 2 mg/kg, po; details: in vivo, read-out: Vdss

bioavailability [1] [%] | Cmax [2] [nM] | Vd [3] [L/kg] | SMILES
33 | 170 | 4.6 | CN(C)CCOc1cc(-c2cn[nH]c2)ccc1NC(=O)C1COc2ccccc2C1 (centres undefined)
35 | 320 | 1.7 | COc1ccc2c(c1)CC(C(=O)Nc1ccc(-c3cn[nH]c3)cc1OCCN(C)C)CO2 (centres undefined)
27 | 100 | 5.9 | CN(C)CCOc1cc(-c2cn[nH]c2)ccc1NC(=O)C1COc2ccc(F)cc2C1 (centres undefined)

— ChEMBL document CHEMBL1141010, “Chroman-3-amides as potent Rho kinase inhibitors” (Bioorg Med Chem Lett, 2008)
